# Laboratory results taken from ChEMBL document CHEMBL1201862, “PubChem BioAssay data set” (2004).
#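 Briefly, cells in 96-well plates were exposed to five compound concentrations for 48 h, and endpoints were estimated by linear interpolation. Abbreviation: GI50, concentration required for 50% inhibition of growth.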 Calls of active or inactive are those of the source. No stated cut-off is given here; in the data, active = GI50 up to about 1.1 µM and inactive = higher. Square brackets hold non-standard residues; d marks the D form. Peptide text beside a SMILES is read from it. pGlu = O=C1CC[CH](C(=O)O)N1
# How the values were obtained:
# Assay in all cases: growth of human tumour cells (NCI), 48 h
# 786-0 = tested on: 786-0
# A549 = tested on: A549
# EKVX = tested on: EKVX
# HOP-62 = tested on: HOP-62
# HOP-92 = tested on: HOP-92
# KM12 = tested on: KM12
# M14 = tested on: M14
# MDA-MB-435 = tested on: MDA-MB-435
# OVCAR-4 = tested on: OVCAR-4
# OVCAR-5 = tested on: OVCAR-5
# OVCAR-8 = tested on: OVCAR-8
# SF-268 = tested on: SF-268
# SF-295 = tested on: SF-295
# SN12C = tested on: SN12C
# SNB-19 = tested on: SNB-19
# SW-620 = tested on: SW-620
# U-251 = tested on: U-251
# UACC-257 = tested on: UACC-257
# A498 = tested on: A498
Compound,GI50 (786-0),GI50 (A549),GI50 (EKVX),GI50 (HOP-62),GI50 (HOP-92),GI50 (KM12),GI50 (M14),GI50 (MDA-MB-435),GI50 (OVCAR-4),GI50 (OVCAR-5),GI50 (OVCAR-8),GI50 (SF-268),GI50 (SF-295),GI50 (SN12C),GI50 (SNB-19),GI50 (SW-620),GI50 (U-251),GI50 (UACC-257),GI50 (A498)
O=C(O)CCNc1ncc2c(n1)-c1ccccc1OC2,> 100 µM (inactive),> 100 µM (inactive),61.7 µM (inactive),> 100 µM (inactive),29 µM (inactive),> 100 µM (inactive),> 100 µM (inactive),> 100 µM (inactive),> 100 µM (inactive),> 100 µM (inactive),> 100 µM (inactive),> 100 µM (inactive),> 100 µM (inactive),> 100 µM (inactive),> 100 µM (inactive),> 100 µM (inactive),> 100 µM (inactive),> 100 µM (inactive),
O=C(CC(C(=O)c1cccs1)c1cccs1)c1ccsc1 (stereo not given),50.5 µM (inactive),43.3 µM (inactive),66.1 µM (inactive),73.6 µM (inactive),,34 µM (inactive),38.2 µM (inactive),20.2 µM (inactive),67.1 µM (inactive),> 100 µM (inactive),59.2 µM (inactive),56.4 µM (inactive),,39.4 µM (inactive),75.2 µM (inactive),44.1 µM (inactive),41.6 µM (inactive),60 µM (inactive),49.7 µM (inactive)
COc1ccc(-c2c3c(n(C4OC(COC(C)=O)C(OC(C)=O)C(OC(C)=O)C4OC(C)=O)c(=S)c2C#N)CCCC3)cc1 (stereo not given),> 100 µM (inactive),64.1 µM (inactive),53 µM (inactive),89.3 µM (inactive),,> 100 µM (inactive),> 100 µM (inactive),> 100 µM (inactive),25.5 µM (inactive),> 100 µM (inactive),69 µM (inactive),34.2 µM (inactive),> 100 µM (inactive),> 100 µM (inactive),24.7 µM (inactive),51.5 µM (inactive),45 µM (inactive),> 100 µM (inactive),15.2 µM (inactive)
O=C(CCl)N1CCN(c2ccccc2)CC1,15.9 µM (inactive),22.6 µM (inactive),24.5 µM (inactive),19.7 µM (inactive),21.4 µM (inactive),19.3 µM (inactive),17.7 µM (inactive),,17.2 µM (inactive),20.6 µM (inactive),32.1 µM (inactive),14.5 µM (inactive),19.1 µM (inactive),,37.7 µM (inactive),23.4 µM (inactive),19.5 µM (inactive),23.2 µM (inactive),25.9 µM (inactive)
CC(NC(=O)C(Cc1c[nH]cn1)NC(=O)C1CCC(=O)N1)C(N)=O (stereo not drawn) ([pGlu]-His-Ala-NH2; configuration not given here),> 100 µM (inactive),> 100 µM (inactive),> 100 µM (inactive),> 100 µM (inactive),> 100 µM (inactive),> 100 µM (inactive),> 100 µM (inactive),> 100 µM (inactive),,> 100 µM (inactive),> 100 µM (inactive),> 100 µM (inactive),> 100 µM (inactive),> 100 µM (inactive),> 100 µM (inactive),> 100 µM (inactive),> 100 µM (inactive),,
O=C(COc1ccc(Cl)cc1)N1N=C(c2ccc([N+](=O)[O-])o2)CC1(O)c1ccccc1 (stereo not given),7.62 µM (inactive),10 µM (inactive),,20 µM (inactive),20.2 µM (inactive),6.58 µM (inactive),11.8 µM (inactive),,7.11 µM (inactive),15.8 µM (inactive),5.62 µM (inactive),10.5 µM (inactive),10.7 µM (inactive),4.44 µM (inactive),11.9 µM (inactive),4.71 µM (inactive),4.94 µM (inactive),4.05 µM (inactive),
O=C(OC1=CCN(Br)C1=O)C1=C(O)C(=O)N(Br)C1,16.7 µM (inactive),42.9 µM (inactive),25.1 µM (inactive),24 µM (inactive),,32.2 µM (inactive),51.8 µM (inactive),33.1 µM (inactive),30 µM (inactive),21.1 µM (inactive),31.3 µM (inactive),24.9 µM (inactive),26.9 µM (inactive),17.3 µM (inactive),20.2 µM (inactive),26.5 µM (inactive),22.5 µM (inactive),26.9 µM (inactive),> 100 µM (inactive)
Cc1cc(=O)oc2c(CNC(CC(C)C)C(=O)O)c(O)ccc12 (stereo not given),> 100 µM (inactive),> 100 µM (inactive),> 100 µM (inactive),> 100 µM (inactive),> 100 µM (inactive),> 100 µM (inactive),> 100 µM (inactive),> 100 µM (inactive),> 100 µM (inactive),> 100 µM (inactive),> 100 µM (inactive),> 100 µM (inactive),> 100 µM (inactive),> 100 µM (inactive),> 100 µM (inactive),> 100 µM (inactive),> 100 µM (inactive),> 100 µM (inactive),
C/C=C/C=N/N(C(=O)c1cc([N+](=O)[O-])cc([N+](=O)[O-])c1)C1=NN=C(c2ccccc2)C(c2ccccc2)N1 (stereo not given),80.4 µM (inactive),61.2 µM (inactive),> 100 µM (inactive),> 100 µM (inactive),11.1 µM (inactive),46.2 µM (inactive),33.3 µM (inactive),,68.4 µM (inactive),> 100 µM (inactive),89.9 µM (inactive),47.2 µM (inactive),94.6 µM (inactive),57.9 µM (inactive),> 100 µM (inactive),55 µM (inactive),> 100 µM (inactive),26.5 µM (inactive),> 100 µM (inactive)
CC(=O)/N=C1\NC(=O)/C(=C/c2ccc(Cl)cc2Cl)N1C,56.4 µM (inactive),> 100 µM (inactive),1.02 µM (active),41.8 µM (inactive),83.8 µM (inactive),> 100 µM (inactive),95.3 µM (inactive),97.5 µM (inactive),55.1 µM (inactive),> 100 µM (inactive),31.6 µM (inactive),56.6 µM (inactive),96.2 µM (inactive),,47.6 µM (inactive),80.9 µM (inactive),19.5 µM (inactive),> 100 µM (inactive),
Cc1ccc([N+](=O)[O-])cc1S(=O)(=O)Nc1ccc(C2=NN(c3ccc([N+](=O)[O-])cc3[N+](=O)[O-])C(c3cccs3)C2)cc1 (stereo not given),17.1 µM (inactive),19.5 µM (inactive),15.8 µM (inactive),19.2 µM (inactive),16.1 µM (inactive),21 µM (inactive),15 µM (inactive),21 µM (inactive),18.5 µM (inactive),43.9 µM (inactive),22 µM (inactive),16.4 µM (inactive),25.6 µM (inactive),18 µM (inactive),27.9 µM (inactive),35.7 µM (inactive),19.5 µM (inactive),16 µM (inactive),
O=C1CSC(c2c[nH]c3ccccc23)N1c1cccc([N+](=O)[O-])c1 (stereo not given),> 100 µM (inactive),> 100 µM (inactive),> 100 µM (inactive),> 100 µM (inactive),32.6 µM (inactive),24.4 µM (inactive),> 100 µM (inactive),38.3 µM (inactive),> 100 µM (inactive),> 100 µM (inactive),> 100 µM (inactive),> 100 µM (inactive),66.7 µM (inactive),> 100 µM (inactive),> 100 µM (inactive),> 100 µM (inactive),> 100 µM (inactive),> 100 µM (inactive),
O=c1cccccc1O [TROPOLONE],55.3 µM (inactive),> 100 µM (inactive),> 100 µM (inactive),,> 100 µM (inactive),> 100 µM (inactive),> 100 µM (inactive),> 100 µM (inactive),94 µM (inactive),> 100 µM (inactive),32.9 µM (inactive),35.7 µM (inactive),93.3 µM (inactive),,> 100 µM (inactive),45.5 µM (inactive),,> 100 µM (inactive),
Cc1cc(S(=O)(=O)Nc2nc(N)n[nH]2)c(Cl)cc1Cl,> 10 µM (inactive),> 10 µM (inactive),> 10 µM (inactive),> 10 µM (inactive),,> 10 µM (inactive),> 10 µM (inactive),> 10 µM (inactive),> 10 µM (inactive),> 10 µM (inactive),> 10 µM (inactive),> 10 µM (inactive),> 10 µM (inactive),> 10 µM (inactive),> 10 µM (inactive),> 10 µM (inactive),> 10 µM (inactive),> 10 µM (inactive),> 10 µM (inactive)
NC(=O)C1N=NSC1NC(=O)c1ccc([N+](=O)[O-])cc1 (stereo not given),> 100 µM (inactive),27 µM (inactive),30 µM (inactive),> 100 µM (inactive),,49.9 µM (inactive),56.4 µM (inactive),46.5 µM (inactive),43.3 µM (inactive),> 100 µM (inactive),53.6 µM (inactive),54.7 µM (inactive),32.2 µM (inactive),47.5 µM (inactive),50.6 µM (inactive),50.6 µM (inactive),36.6 µM (inactive),> 100 µM (inactive),
CCC(Cc1cnc2nc(N)nc(N)c2n1)c1ccc(C(=O)NC(CCC(=O)O)C(=O)O)cc1 (stereo not given),0.000146 µM (active),0.000507 µM (active),0.000249 µM (active),0.00515 µM (active),,0.00069 µM (active),0.000899 µM (active),0.000736 µM (active),,0.01 µM (active),0.000624 µM (active),0.00075 µM (active),0.01 µM (active),0.000551 µM (active),0.00419 µM (active),0.000176 µM (active),,0.103 µM (active),> 100 µM (inactive)
